Results on two substances are retold here after patent US4851209A, “Diagnostic procedures using radio labeled sucralfate and derivatives or precursors thereof” (The Regents of the University of California, priority 1985, dated 1989).

Series [1] has as its system duodenal and gastric ulcers, gastric erosions, mucosa. To be noted: cited from earlier work.
The test system of series [2] is duodenal ulcers. To be noted: several clinical trials; cited from earlier work.
The subject of series [3] is pepsin. To be noted: cited from earlier work.
Series [4] is described as follows: stability of tagged material in solution. It is filed as physicochemical. To be noted: one gram per 10 cc of normal saline. From the text: The tagged material was stable in a solution comprising one gram per 10 cc of normal saline. The solution was given orally as a 10 cc dose. […] A good analogy would be the stars at night vs. the stars during the day. The stars are there in both instances. However, the sky is so bright during the day that star-light is simply lost in the background. […] The potassium salt used for imaging ulcers in Example III can be replaced by other cations compatible in the human body including alkali metal and alkaline earth metal cations such as sodium and calcium.

As to Sucralfate, the “binding to ulcerated areas in the upper G. I. tract” value in series [1] (FDA approved drug) was “bind selectively to ulcerated areas”. Besides, the duration of action result in series [1] (animal data) is “sustained”. The “binding to uninjured mucosa” value in series [1] (compared with defective mucosa) is listed as “to a much lesser extent”. Further, the “binding to duodenal and gastric ulcers and to gastric erosions” value in series [1] (erosions produced by ethanol and anti-inflammatory drugs) was “binds to duodenal and gastric ulcers and to gastric erosions”. Further, the “safety and efficacy in healing duodenal ulcers” value in series [2] was “shown the safety and efficacy”. In addition, in series [3], the “inhibition of the action of pepsin” value was “inhibits the action of pepsin”.

For the substance “potassium sucrose sulfate [Tc-99m labeled potassium sucrose sulfate]”, the stability in solution result in series [4] was “stable”.
